Assay results taken from the supplement of paper PMC11208160.

Test: recombinant barcode read abundance after kanamycin selection (control-corrected) (log10(CPM+1)); higher = more efficient recombination; sequences stand for … in AGTGCAGAGAAAATCGGCCAGTTTTCTCTGCCTGCAGTCCGCATGCCGT…ATTTATGCAGCGGACTGCCTTTCTCCCAAAGTGATAAACCGGACAGTATCATGGACCGGTTTTCCCGGTAATCCGTATTTGCAAGGTTGGTTTCACT; site = the 11-nt target
How it was run: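 Recombination efficiency draws on barcodes counted at recombinant junctions in a pooled E. coli screen of targets paired with IS621 bridge RNA target-binding loops. The counts were converted to counts per million, averaged and corrected against the chloramphenicol/ampicillin LB agar control, then reported as log10(CPM+1). Selection plates held chloramphenicol/ampicillin/kanamycin with 0.1 mM IPTG, with two replicates per condition.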

Sequence	recombinant barcode read abundance (log10)
TGATACCCTTGGGTTCTAACCTGTTGCGTTC [TGATACCCTAC_LTGcore_CT_RTGcore_GA] (site TGATACCCTAC) (LTG core: CT, RTG core: GA)	0.335
TGATACCCTTGGGTTCTAACCTGTTGCGTTT [TGATACCCTAC_LTGcore_CT_RTGcore_AA] (site TGATACCCTAC) (LTG core: CT, RTG core: AA)	0.666
TGATACCGCTGGGTTCTAACCTGTTGCGTAG [TGATACCCTAC_LTGcore_GC_RTGcore_CT] (site TGATACCCTAC) (LTG core: GC, RTG core: CT)	0.164
TGATACCTCTGGGTTCTAACCTGTTGCGTAG [TGATACCCTAC_LTGcore_TC_RTGcore_CT] (site TGATACCCTAC) (LTG core: TC, RTG core: CT)	0.146
TGATACCTTTGGGTTCTAACCTGTTGCGTAG [TGATACCCTAC_LTGcore_TT_RTGcore_CT] (site TGATACCCTAC) (LTG core: TT, RTG core: CT)	0.0115
TGTATTCAGTGGGTTCTAACCTGTTGCCTAG [TGTATTCCTAG_LTGcore_AG_RTGcore_CT] (site TGTATTCCTAG) (LTG core: AG, RTG core: CT)	0.0134
TGTATTCATTGGGTTCTAACCTGTTGCCTAT [TGTATTCCTAG_LTGcore_AT_RTGcore_AT] (site TGTATTCCTAG) (LTG core: AT, RTG core: AT)	0.144
TGTATTCCATGGGTTCTAACCTGTTGCCTTG [TGTATTCCTAG_LTGcore_CA_RTGcore_CA] (site TGTATTCCTAG) (LTG core: CA, RTG core: CA)	0.579
TGTATTCCGTGGGTTCTAACCTGTTGCCTAG [TGTATTCCTAG_LTGcore_CG_RTGcore_CT] (site TGTATTCCTAG) (LTG core: CG, RTG core: CT)	0.356
TGTATTCCGTGGGTTCTAACCTGTTGCCTCG [TGTATTCCTAG_LTGcore_CG_RTGcore_CG] (site TGTATTCCTAG) (LTG core: CG, RTG core: CG)	0.0909
TGTATTCCTTGGGTTCTAACCTGTTGCCTAC [TGTATTCCTAG_LTGcore_CT_RTGcore_GT] (site TGTATTCCTAG) (LTG core: CT, RTG core: GT)	0.0923
TGTATTCCTTGGGTTCTAACCTGTTGCCTCA [TGTATTCCTAG_LTGcore_CT_RTGcore_TG] (site TGTATTCCTAG) (LTG core: CT, RTG core: TG)	0.1
TGTATTCCTTGGGTTCTAACCTGTTGCCTCT [TGTATTCCTAG_LTGcore_CT_RTGcore_AG] (site TGTATTCCTAG) (LTG core: CT, RTG core: AG)	0.0303
TGTATTCCTTGGGTTCTAACCTGTTGCCTTG [TGTATTCCTAG_LTGcore_CT_RTGcore_CA] (site TGTATTCCTAG) (LTG core: CT, RTG core: CA)	0.0735
TGTATTCTCTGGGTTCTAACCTGTTGCCTAG [TGTATTCCTAG_LTGcore_TC_RTGcore_CT] (site TGTATTCCTAG) (LTG core: TC, RTG core: CT)	0.0135
TTATAAAAATGGGTTCTAACCTGTTGCCTTT [TTATAAACTAG_LTGcore_AA_RTGcore_AA] (site TTATAAACTAG) (LTG core: AA, RTG core: AA)	0.038
TTATAAAACTGGGTTCTAACCTGTTGCCTAG [TTATAAACTAG_LTGcore_AC_RTGcore_CT] (site TTATAAACTAG) (LTG core: AC, RTG core: CT)	0.39
TTATAAAATTGGGTTCTAACCTGTTGCCTAG [TTATAAACTAG_LTGcore_AT_RTGcore_CT] (site TTATAAACTAG) (LTG core: AT, RTG core: CT)	0.0851
TTATAAAATTGGGTTCTAACCTGTTGCCTAT [TTATAAACTAG_LTGcore_AT_RTGcore_AT] (site TTATAAACTAG) (LTG core: AT, RTG core: AT)	0.124
TTATAAACCTGGGTTCTAACCTGTTGCCTGG [TTATAAACTAG_LTGcore_CC_RTGcore_CC] (site TTATAAACTAG) (LTG core: CC, RTG core: CC)	0.0325
TTATAAACTTGGGTTCTAACCTGTTGCCTAC [TTATAAACTAG_LTGcore_CT_RTGcore_GT] (site TTATAAACTAG) (LTG core: CT, RTG core: GT)	0.944
TTATAAACTTGGGTTCTAACCTGTTGCCTAT [TTATAAACTAG_LTGcore_CT_RTGcore_AT] (site TTATAAACTAG) (LTG core: CT, RTG core: AT)	0.302
TTATAAACTTGGGTTCTAACCTGTTGCCTGG [TTATAAACTAG_LTGcore_CT_RTGcore_CC] (site TTATAAACTAG) (LTG core: CT, RTG core: CC)	0.574
TTATAAACTTGGGTTCTAACCTGTTGCCTTT [TTATAAACTAG_LTGcore_CT_RTGcore_AA] (site TTATAAACTAG) (LTG core: CT, RTG core: AA)	0.0604
TTATAAAGTTGGGTTCTAACCTGTTGCCTAG [TTATAAACTAG_LTGcore_GT_RTGcore_CT] (site TTATAAACTAG) (LTG core: GT, RTG core: CT)	0.109
TTATAAATATGGGTTCTAACCTGTTGCCTTA [TTATAAACTAG_LTGcore_TA_RTGcore_TA] (site TTATAAACTAG) (LTG core: TA, RTG core: TA)	0.855
TTATAAATGTGGGTTCTAACCTGTTGCCTAG [TTATAAACTAG_LTGcore_TG_RTGcore_CT] (site TTATAAACTAG) (LTG core: TG, RTG core: CT)	0.083
TTATAAATTTGGGTTCTAACCTGTTGCCTAG [TTATAAACTAG_LTGcore_TT_RTGcore_CT] (site TTATAAACTAG) (LTG core: TT, RTG core: CT)	0.0473
